Patent US10294202B2, “Pyrrolidinones as herbicides” (FMC Corporation, priority 2013, dated 2019)

Legend:
[1] = system: barnyardgrass; assay: Test A pre-/postemergence herbicide test; type: in vivo, Echinochloa crus-galli
Procedure, shortened: (§1)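 Both application timings used compounds in a non-phytotoxic solvent plus surfactant. Pre-emergence: soil sprayed directly after seeding into loam/sand. Post-emergence: foliage of 2–10 cm seedlings (1–2 leaves) sprayed. Injury rated ~10 days later, 0–100.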

[2] = system: kochia; assay: Test A pre-/postemergence herbicide test; type: in vivo, Kochia scoparia; settings: for Plant response rating, Kochia: 125 g ai/ha
Procedure, shortened: as §1

[3] = system: ragweed; assay: Test A pre-/postemergence herbicide test; type: in vivo, Ambrosia elatior; settings: for Plant response rating, Ragweed: 125 g ai/ha
Procedure, shortened: as §1

[4] = system: ryegrass, Italian; assay: Test A pre-/postemergence herbicide test; type: in vivo, Lolium multiflorum; settings: for Plant response rating, Ryegrass, Italian: 125 g ai/ha
Procedure, shortened: as §1

[5] = system: giant foxtail; assay: Test A pre-/postemergence herbicide test; type: in vivo, Setaria faberii
Procedure, shortened: as §1

[6] = system: pigweed; assay: Test A pre-/postemergence herbicide test; type: in vivo, Amaranthus retroflexus; settings: for Plant response rating, Pigweed: 125 g ai/ha
Procedure, shortened: as §1

[7] = system: wheat; assay: Test A pre-/postemergence herbicide test; type: in vivo, Triticum aestivum; settings: Postemergence, 125 g ai/ha; visual rating on 0 to 100 scale (0 no effect, 100 complete control), approx. 10 days
Procedure, shortened: as §1

[8] = system: corn; assay: Test A pre-/postemergence herbicide test; type: in vivo, Zea mays; settings: Postemergence
Procedure, shortened: as §1

[9] = system: blackgrass; assay: Test A postemergence herbicide test; type: in vivo, Alopecurus myosuroides
Procedure, shortened: (§2)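 Young potted plants in a loam–sand mix, one- to two-leaf stage and 2–10 cm tall, receive the test chemical postemergence and stay in a greenhouse for approximately 10 days. Injury is then judged by eye against untreated plants, scored 0 (none) to 100 (complete control).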

[10] = system: galium; assay: Test A postemergence herbicide test; type: in vivo, Galium aparine; settings: 125 g ai/ha, visual rating on 0 to 100 scale (0 no effect, 100 complete control), approx. 10 days
Procedure, shortened: as §2

[11] = system: rice; assay: Test B flooded paddy test; type: in vivo, Oryza sativa; settings: 1000 g ai/ha, Flood; scale of 0 to 100 where 0 is no effect and 100 is complete control
Procedure, shortened: (§3)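 Treatment was made at the 2-leaf stage by dosing the standing floodwater, kept 3 cm above soil level for the whole test. Greenhouse exposure lasted 13 to 15 days. Response is a visual percent rating relative to controls, where a dash indicates no test result.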

[12] = system: sedge, umbrella; assay: Test B flooded paddy test; type: in vivo, Cyperus difformis; settings: 1000 g ai/ha, Flood; scale of 0 to 100 where 0 is no effect and 100 is complete control
Procedure, shortened: as §3

[13] = system: ducksalad; assay: Test B flooded paddy test; type: in vivo, Heteranthera limosa; settings: 1000 g ai/ha, Flood; scale of 0 to 100 where 0 is no effect and 100 is complete control
Procedure, shortened: as §3

[14] = system: barnyardgrass; assay: Test B flooded paddy test; type: in vivo, Echinochloa crus-galli; settings: 1000 g ai/ha, Flood; scale of 0 to 100 where 0 is no effect and 100 is complete control
Procedure, shortened: as §3

[15] = system: rice; assay: Test C flooded paddy test; type: in vivo, Oryza sativa; settings: Flood
Procedure, shortened: (§4)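 2-leaf stage; flood 3 cm over soil; compound into paddy water; depth held; greenhouse 13–15 d; visual % control vs untreated (0 = none, 100 = complete); "-" = not tested.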

[16] = system: sedge, umbrella; assay: Test C flooded paddy test; type: in vivo, Cyperus difformis; settings: Flood
Procedure, shortened: as §4

[17] = system: ducksalad; assay: Test C flooded paddy test; type: in vivo, Heteranthera limosa; settings: Flood
Procedure, shortened: as §4

[18] = system: barnyardgrass; assay: Test C flooded paddy test; type: in vivo, Echinochloa crus-galli; settings: Flood
Procedure, shortened: as §4

[19] = system: corn (ZEAMD); assay: Test H preemergence mixture test (Colby); type: in vivo, Zea mays; settings: applied alone, 21 d, mean of three replicates, scale 0-100
From the text: (§5) Colby's Equation was used to determine the herbicidal effects expected from the mixtures. Colby's Equation (Colby, S. R. “Calculating Synergistic and Antagonistic Responses of Herbicide Combinations,” Weeds, 15(1), pp 20-22 (1967)) calculates the expected additive effect of herbicidal mixtures and for two active ingredients is of the form: Pa+b=Pa+Pb−(PaPb/100)
(§6) where • Pa+b is the percentage effect of the mixture expected from additive contribution of the individual components: • Pa is the observed percentage effect of the first active ingredient at the same use rate as in the mixture, and • Pb is the observed percentage effect of the second active ingredient at the same use rate as in the mixture. In the following Tables, rates are shown in grams of active ingredient per hectare (g a.i./ha); “Obsd.” is the observed effect. “Exp.” is the expected effect calculated from Colby's Equation.
(§7) This test evaluated the effect of mixtures of compound 80 with several commercial herbicides on four plant species. Seeds of plant species selected from corn (ZEAMD, Zea mays), soybean (GLXMA, Glycine max), waterhemp (common waterhemp, AMATA, Amaranthus rudis), and giant foxtail (SETFA, Setaria faberii) were planted into a silt loam soil and treated preemergence with test chemicals formulated in a non-phytotoxic solvent mixture which included a surfactant and applied using a volume of 281 L/ha. Each treatment was replicated three times. Treated plants and controls were maintained in a greenhouse using supplemental lighting to maintain a photoperiod of about 16 h; daytime and nighttime temperatures were about 24-30° C. and 19-21° C., respectively. Nutrients were applied using a balanced fertilizer applied through the watering system. At 21 d after treatment, all species were compared to controls and visually evaluated. Plant response ratings were calculated as the means of the three replicates, are summarized in Tables H1 through H5, and are based on a scale of 0 to 100 where 0 is no effect and 100 is complete control. A dash (-) response means no test result. The Expected (Exp.) results were calculated using Colby's Equation as described for Test G above.

[20] = system: soybean (GLXMA); assay: Test H preemergence mixture test (Colby); type: in vivo, Glycine max; settings: applied alone, 21 d, mean of three replicates, scale 0-100
From the text: as §5, §6, §7

[21] = system: waterhemp (AMATA); assay: Test H preemergence mixture test (Colby); type: in vivo, Amaranthus rudis; settings: applied alone, 21 d, mean of three replicates, scale 0-100
From the text: as §5, §6, §7

[22] = system: giant foxtail (SETFA); assay: Test H preemergence mixture test (Colby); type: in vivo, Setaria faberii; settings: applied alone, 21 d, mean of three replicates, scale 0-100
From the text: as §5, §6, §7

[23] = Postemergence, 125 g ai/ha, visual rating on 0 to 100 scale (0 no effect, 100 complete control), approx. 10 days
[24] = Postemergence, 500 g ai/ha, 0 to 100 scale (0 no effect, 100 complete control)
[25] = Preemergence, 125 g ai/ha, 0 to 100 scale where 0 is no effect and 100 is complete control
[26] = Preemergence, 500 g ai/ha, visual rating on 0 to 100 scale (0 no effect, 100 complete control)
[27] = Postemergence, visual rating on 0 to 100 scale (0 no effect, 100 complete control), approx. 10 days
[28] = Preemergence, 0 to 100 scale where 0 is no effect and 100 is complete control
[29] = 125 g ai/ha, visual rating on 0 to 100 scale (0 no effect, 100 complete control), approx. 10 days
[30] = 500 g ai/ha, 0 to 100 scale (0 no effect, 100 complete control)
[31] = 125 g ai/ha, scale of 0 to 100 where 0 is no effect and 100 is complete control, 13 to 15 days
[32] = 250 g ai/ha, scale of 0 to 100 where 0 is no effect and 100 is complete control, 13 to 15 days

O=C1NCC(c2cccc(C(F)(F)F)c2)C1C(=O)Nc1cccc(Cl)c1F (centres unmarked) [Compound 344]
Plant response rating, Barnyardgrass [1, 23]: 60 | Plant response rating, Barnyardgrass [1, 24]: 90 | Plant response rating, Barnyardgrass [1, 25]: 50 | Barnyardgrass plant response rating [1, 26]: 90 | Plant response rating, Kochia [2, 27]: 0 | Plant response rating, Kochia [2, 28]: 0 | Kochia plant response rating [2, 26]: 0 | Plant response rating, Ragweed [3, 27]: 0 | Plant response rating, Ragweed [3, 28]: 0 | Ragweed plant response rating [3, 26]: 0 | Plant response rating, Ryegrass, Italian [4, 27]: 0 | Plant response rating, Ryegrass, Italian [4, 28]: 0 | Ryegrass, Italian plant response rating [4, 26]: 30 | Plant response rating, Foxtail, Giant [5, 23]: 80 | Plant response rating, Foxtail, Giant [5, 24]: 90 | Plant response rating, Foxtail, Giant [5, 25]: 80 | Foxtail, Giant plant response rating [5, 26]: 90 | Plant response rating, Pigweed [6, 27]: 0 | Plant response rating, Pigweed [6, 28]: 0 | Pigweed plant response rating [6, 26]: 0 | Plant response rating, Wheat [7]: 0 | Plant response rating, Corn [8, 29]: 0 | Plant response rating, Corn [8, 30]: 0 | Plant response rating, Blackgrass [9, 29]: 0 | Plant response rating, Blackgrass [9, 30]: 0 | Plant response rating, Galium [10]: 0 | Plant response rating, Rice [11]: 10 | Plant response rating, Sedge, Umbrella [12]: 0 | Plant response rating, Ducksalad [13]: 90 | Plant response rating, Barnyardgrass [14]: 85 | Plant response rating, Rice [15, 31]: 0 | Plant response rating, Rice [15, 32]: 0 | Plant response rating, Rice ([15]; 500 g ai/ha, scale 0 to 100): 0 | Plant response rating, Rice ([15]; 1000 g ai/ha, scale 0 to 100): 0 | Plant response rating, Sedge, Umbrella [16, 31]: 0 | Plant response rating, Sedge, Umbrella [16, 32]: 0 | Plant response rating, Sedge, Umbrella ([16]; 500 g ai/ha, scale 0 to 100): 0 | Plant response rating, Sedge, Umbrella ([16]; 1000 g ai/ha, scale 0 to 100): 0 | Plant response rating, Ducksalad [17, 31]: 50 | Plant response rating, Ducksalad [17, 32]: 60 | Plant response rating, Ducksalad ([17]; 500 g ai/ha, scale 0 to 100): 65 | Plant response rating, Ducksalad ([17]; 1000 g ai/ha, scale 0 to 100): 85 | Plant response rating, Barnyardgrass [18, 31]: 0 | Plant response rating, Barnyardgrass [18, 32]: 35 | Plant response rating, Barnyardgrass ([18]; 500 g ai/ha, scale 0 to 100): 40 | Plant response rating, Barnyardgrass ([18]; 1000 g ai/ha, scale 0 to 100): 55

CCc1cccc(C)c1N(C(=O)CCl)[C@@H](C)COC [S-metolachlor]
ZEAMD Obsd. ([19]; 31 g a.i./ha): 13 | ZEAMD Obsd. ([19]; 125 g a.i./ha): 20 | GLXMA Obsd. ([20]; 31 g a.i./ha): 18 | GLXMA Obsd. ([20]; 125 g a.i./ha): 15 | AMATA Obsd. ([21]; 31 g a.i./ha): 0 | AMATA Obsd. ([21]; 125 g a.i./ha): 85 | SETFA Obsd. ([22]; 31 g a.i./ha): 73 | SETFA Obsd. ([22]; 125 g a.i./ha): 99

CC(C)N(C)S(=O)(=O)NC(=O)c1cc(-n2c(=O)cc(C(F)(F)F)n(C)c2=O)c(F)cc1Cl [Saflufenacil]
ZEAMD Obsd. ([19]; 1 g a.i./ha): 20 | ZEAMD Obsd. ([19]; 31 g a.i./ha): 0 | GLXMA Obsd. ([20]; 1 g a.i./ha): 0 | GLXMA Obsd. ([20]; 31 g a.i./ha): 13 | AMATA Obsd. ([21]; 1 g a.i./ha): 0 | AMATA Obsd. ([21]; 31 g a.i./ha): 83 | SETFA Obsd. ([22]; 1 g a.i./ha): 0 | SETFA Obsd. ([22]; 31 g a.i./ha): 23
